Test results: paper PMC11111895, “Identification of a dCache-type chemoreceptor in Campylobacter jejuni that specifically mediates chemotaxis towards methyl pyruvate” (Frontiers in Microbiology, 2024)
Where two headings read alike, the source gives them in different places.

What was measured:
Tlp11-LBD [1] = assay: Microscale thermophoresis (MST) of Tlp11-LBD; assay type: binding, C. jejuni ATCC 33560; conditions: for Kd: 250 nM protein
Experimental: The His-tag dye (MO-L018 RED-tris-NTA, NanoTemper, Germany) was adjusted to a final concentration of 25 nM and used to label the purified protein with a His-tag. The compound was diluted to a series of concentrations in phosphate-buffered saline ([Duan et al., 2023]) with 0.05% Tween 20 (PBS-T) buffer and mixed in a ratio of 1:1 with protein. The mixtures were loaded into capillaries (Monolith™ Series capillaries, NanoTemper) by means of capillary action. Thermophoresis was measured using a Monolith™ NT.115 (NanoTemper) instrument, with 40% excitation and 40% MST power configuration. The time-traces of changes in fluorescence, which reflected the thermophoretic movement of labeled protein affected by different concentrations of compound were recorded, and the dose–response curves were fitted with the ‘temperature jump and thermophoresis’ mode. Data analysis was performed using MO. Affinity Analysis version 2.3 (NanoTemper) and Prism version 8.0.2 (GraphPad Software, United States).
MST quantifies interaction affinities by detecting the direct movement of fluorescent molecules along temperature gradients in capillaries. Ligand binding changes the thermophoretic movement of proteins, which can be used to derive Kds, by sequentially scanning capillaries with different ligand concentrations. MST has been applied to the study of weak binding systems and validated to provide reliable results ([Linke et al., 2016]; [Gao et al., 2021]). […] We also tested the binding abilities of methyl pyruvate analogues to Tlp11-LBD using MST (Supplementary Table S3).

[2] = test system: C. jejuni NCTC 11168ΩTlp11 cells; assay type: cell-based, Campylobacter jejuni
[3] = test system: C. jejuni WT NCTC 11168 cells; assay type: cell-based, Campylobacter jejuni
[4] = test system: C. jejuni 11168ΩTlp11/ΔCheY; assay type: cell-based, Campylobacter jejuni
Tlp11-LBD [5] = test system: Tlp11-LBD; set-up: method as in Day et al., 2016; conditions: ref Day et al., 2016; cited from earlier work
H. pylori = test system: H. pylori; set-up: method as in Matilla and Krell, 2023; Zhou et al., 2023; conditions: increase from 25 upon combination with amoxicillin and clarithromycin, clinical studies, ref Matilla and Krell, 2023, Zhou et al.; cited from earlier work
C. jejuni ATCC 33560 = assay: Growth curves in Minimal Essential Medium; assay type: cell-based, Campylobacter jejuni; conditions: Minimal Essential Medium with fetal bovine serum, shaking; methyl pyruvate at concentrations above 1 mM
Experimental: The C. jejuni ATCC 33560, C. jejuni WT NCTC 11168 and 11168ΩTlp11 cells were grown on a MH agar plate overnight, at 37°C, under microaerobic conditions. The colonies were suspended in PBS ([Duan et al., 2023]), pH 7.2, inoculated into Minimal Essential Medium broth (Life Technologies) containing 10% fetal bovine serum to an initial OD600 of 0.01, and grown at 37°C, 100 rpm, under microaerobic conditions. When required, Minimal Essential Medium was supplemented with different concentrations of methyl pyruvate or pyruvate (both from Macklin, China).

[6] = test system: Tlp11[1-342]-Tar[200-553] (Tlp342Tar200); assay: Microfluidic chemotaxis of E. coli expressing hybrid chemoreceptor Tlp342Tar200; assay type: cell-based, E. coli VS188; conditions: for effect on chemotaxis towards methyl pyruvate of E. coli with Tlp342Tar200 / effect on responses to glucose of E. coli with Tlp342Tar200: cells incubated in 10 mM compound; for chemotactic response of E. coli expressing Tlp342Tar200 as the sole receptor: microfluidic device, 50 min
Experimental: The E. coli cells expressing hybrid chemoreceptor and GFP were grown in tryptone broth, up to an OD600 of 0.55, at 34°C, with shaking at 250 rpm. The cells were harvested by means of centrifugation at 5,000 rpm, washed twice with Tethering Buffer (10 mM KH2PO4, 10 mM K2HPO4, and 0.1 mM EDTA, pH 7.0), and resuspended in Tethering Buffer such that an OD600 of 5.5 was attained. The chemotactic responses of E. coli cells to the compounds were measured using a microfluidic device ([Si et al., 2012]). The collected E. coli cells were added to the sink pores of the device and allowed to freely diffuse into the observation channel for 40 min. Subsequently, the compound solution was added to the source pores, to establish a concentration gradient gradually in the observation channel of the device. Fluorescence intensity in the observation channel was detected using an LSM 800 laser scanning confocal microscope (Zeiss, Germany). Data were analyzed using ImageJ software.
To determine whether methyl pyruvate stimulates transmembrane signaling through Tlp11-LBD, we fused C. jejuni ATCC 33560 Tlp11-LBD with the cytoplasmic region of the E. coli chemoreceptor Tar to construct Tlp11-Tar hybrid chemoreceptors (Figure 3A). Five hybrid receptors with different fusion positions in the second transmembrane helix (TM2) were obtained: Tlp11[1-342]-Tar[200-553] (Tlp342Tar200), Tlp11[1-343]-Tar[200-553] (Tlp343Tar200), Tlp11[1-346]-Tar[204-553] (Tlp346Tar204), Tlp11[1-347]-Tar[204-553] (Tlp347Tar204), and Tlp11[1-348]-Tar[204-553] (Tlp348Tar204) (Supplementary Figure S5A). To verify the activities of these hybrid chemoreceptors, we expressed each protein as a chimera in green fluorescent protein (GFP)-labeled E. coli VS188 without any other chemoreceptors, such that each hybrid receptor served as the only chemoreceptor in the E. coli. […] These chemotactic responses triggered by glucose through the phosphotransferase system are independent of the chemoreceptor LBD ([Neumann et al., 2012]). […] Thus, we used this hybrid receptor for subsequent chemotaxis measurements.

[7] = methyl pyruvate at pH 7.0, read-out: Kd of Tlp11-LBD binding

`CCOC(=O)C(C)=O` [ethyl pyruvate, Ethyl pyruvate] showed a Kd (Tlp11-LBD [1]; read-out: Kd of Tlp11-LBD binding) of 2360 ± 170 µM.
In the case of `O=CO` [formate], the chemotactic response [2] is reported as “attractant response”, the chemotactic response [3] is reported as “attractive response” and the chemotactic response [4] is reported as “no chemotaxis”.
For `O=C[C@H](O)[C@@H](O)[C@@H](O)[C@H](O)CO` [galactose], the “binding to Tlp11-LBD” value (Tlp11-LBD [5]) is listed as “bound directly”.
For `COc1ccc2[nH]c([S+]([O-])Cc3ncc(C)c(OC)c3C)nc2c1` (centres unmarked) [omeprazole], the “eradication rate of H. pylori” value (H. pylori) is listed as 95%.
For `CC(=O)C(=O)O` [pyruvate, Pyruvate], the “binding to Tlp11-LBD” value (Tlp11-LBD [1]; maximum concentration 2.5 mM) was “did not bind” and the “effect on growth of C. jejuni ATCC 33560” value (C. jejuni ATCC 33560) was “promotion of the growth”.
With `c1ccc2ncccc2c1` [quinoline, Quinoline] the Kd (Tlp11-LBD [1]; [7]) was 905 ± 180 µM, the chemotactic response [2] was “neither WT NCTC 11168 nor 11168ΩTlp11 cells exhibited chemotaxis” and the chemotactic response [3] was “neither WT NCTC 11168 nor 11168ΩTlp11 cells exhibited chemotaxis”. For the same compound, the “effect on chemotaxis towards methyl pyruvate of E. coli with Tlp342Tar200” value [6] was “lost the chemotaxis towards methyl pyruvate”, the “effect on responses to glucose of E. coli with Tlp342Tar200” value [6] was “not affected” and the “chemotactic response of E. coli expressing Tlp342Tar200 as the sole receptor” value [6] was “failed to elicit a chemotactic response”.
With `Cc1ccccc1` [toluene, Toluene] the Kd (Tlp11-LBD [1]; [7]) was 844 ± 172 µM, the chemotactic response ([2]; 11168ΩTlp11 cells, microfluidic device, 30 min) was “neither WT NCTC 11168 nor 11168ΩTlp11 cells exhibited chemotaxis” and the chemotactic response ([3]; WT NCTC 11168 cells, microfluidic device, 30 min) was “neither WT NCTC 11168 nor 11168ΩTlp11 cells exhibited chemotaxis”. For the same compound, the “effect on chemotaxis towards methyl pyruvate of E. coli with Tlp342Tar200” value [6] was “lost the chemotaxis towards methyl pyruvate”, the “effect on responses to glucose of E. coli with Tlp342Tar200” value [6] was “not affected” and the “chemotactic response of E. coli expressing Tlp342Tar200 as the sole receptor” value [6] was “failed to elicit a chemotactic response”.
